{"source": "patent US20160166572A1", "about": "“BENEFICIAL EFFECTS OF Lp-PLA2 INHIBITORS IN TREATMENT OF DIABETIC RETINOPATHY AND AGE-RELATED MACULAR DEGENERATION” (Rowan University, priority 2014, published 2016)", "key": {"[1]": {"system": "ganglion cells in the GCL", "experiment": "Extravasated IgG in retina (anti-swine IgG IHC) as evidence of BRB compromise, DMHC pigs", "type": "in vivo, pig", "conditions": "Darapladib 10 mg/kg/d orally, 24 weeks", "procedure": "Briefly, after induction of diabetes by a single injection of Streptozotocin, animals were fed a high cholesterol diet. After a month of DMHC induction and acclimation, animals were randomly segregated to untreated DMHC and Darapladib-treated DMHC groups. Darapladib-treated pigs received 10 mg/kg/d of Darapladib orally. Three of the pigs were spared from DMHC induction and served as age-matched, non-DMHC normal controls. Twenty four weeks after acclimation, animals were euthanized and their brains and eyes were immediately removed. Brains were divided anteroposteriorly into anterior, middle and posterior regions. For each of these brain regions, 2-3 tissue blocks were generated for routine tissue fixation (10% formalin) or freezing and histological processing. The anterior cortical region comprised of anterior ⅔ of frontal lobe and anterior ⅓ of temporal lobe. […] Extravasated IgG was detected using biotinylated anti-swine IgG antibody (Vector laboratories, Inc., Catalogue # BA-9020; dilution 1:100). […] Slides were examined and photographed with a Nikon FXA microscope, and digital images were recorded using a Nikon DXM1200F digital camera and analyzed using MATLAB (MathWorks, Mass., USA) and NIS-elements software (Nikon, Melville, N.Y.). […] The percentage of IgG-positive ganglion cells relative to total ganglion cells in the GCL was calculated. […]"}, "[2]": {"system": "GFAP", "experiment": "GFAP expression in retina (immunofluorescence), DMHC pigs", "type": "in vivo, pig", "conditions": "Darapladib 10 mg/kg/d orally, 24 weeks", "procedure": "Briefly, after induction of diabetes by a single injection of Streptozotocin, animals were fed a high cholesterol diet. After a month of DMHC induction and acclimation, animals were randomly segregated to untreated DMHC and Darapladib-treated DMHC groups. Darapladib-treated pigs received 10 mg/kg/d of Darapladib orally. Three of the pigs were spared from DMHC induction and served as age-matched, non-DMHC normal controls. Twenty four weeks after acclimation, animals were euthanized and their brains and eyes were immediately removed. Brains were divided anteroposteriorly into anterior, middle and posterior regions. For each of these brain regions, 2-3 tissue blocks were generated for routine tissue fixation (10% formalin) or freezing and histological processing. […] Cells positive for GFAP were counted throughout the whole thickness of the retina, and then quantified using ImagePro7.0 (Media Cybernetics, Silver Spring, Md.). Briefly, a 300×300 pixel square area was randomly made in each retinal section in three contiguous locations across the retina and the positive GFAP area was determined per total area using a fixed threshold. […] Cell number was determined by counting the DAPI-positive nuclei in a fixed area. […] GFAP-positive fluorescence extended from inner to outer limiting membranes in the DMHC group, confirming that GFAP was predominantly being expressed by Müller cells (FIGS. 5A-E). […]"}, "[3]": {"system": "BBB", "experiment": "BBB permeability, IgG binding and Aβ42 deposition in cerebral cortex, animal model of DM and hypercholesterolemia", "type": "in vivo"}}, "data": [{"smiles": "CCN(CC)CCN(Cc1ccc(-c2ccc(C(F)(F)F)cc2)cc1)C(=O)Cn1c(SCc2ccc(F)cc2)nc(=O)c2c1CCC2", "note": "[Darapladib]", "values": [{"measurement": "plasma and IgG influx into retinal layers", "setting": "[1]", "result": "curtailed plasma and IgG influx into retinal layers"}, {"measurement": "percentage of IgG-positive ganglion cells relative to total ganglion cells in the GCL", "setting": "[1]; rank among treatment groups, FIG. 4D", "result": "followed by untreated controls and then the DMHC-Darapladib group"}, {"measurement": "intensity of GFAP immunostaining (GFAP expression) in retina", "setting": "[2]; FIG. 5D", "result": "dramatically lower GFAP expression in the retinas of DMHC pigs, it was still significantly higher than in controls"}, {"measurement": "GFAP immunoreactivity, distribution in retina", "setting": "[2]; compared to DMHC only, FIGS. 5A-C", "result": "reduced and confined to the GCL"}, {"measurement": "Aβ42 deposition in cortical pyramidal neurons", "setting": "[3]", "result": "reverse"}, {"measurement": "BBB permeability", "setting": "[3]", "result": "reverse"}, {"measurement": "IgG binding in cortical pyramidal neurons", "setting": "[3]", "result": "reverse"}]}]}
